{"source": "patent US12398097B2", "about": "“WDR5-MYC inhibitors” (Vanderbilt University, priority 2019, dated 2025)", "data": [{"biological_target": "WDR5 (Homo sapiens, UniProt P61964)", "assay": "Competition-based fluorescence polarization anisotropy assay", "details": "binding to WDR5; displacement of FITC-labeled small molecule probe (analogous to Example J2 or HCH-25) or peptide probe FITC-AHx-SEEEIDVVSV; pH 6.0; Ki converted from IC50", "summary_of_the_method": "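Ki values derive from displacement of either a fluorescent small-molecule probe or a FITC-peptide probe from WDR5, monitored by fluorescence polarization. Assay run at pH 6.0 in 200 mM phosphate with 300 mM NaCl, 0.5 mM TCEP and 0.1% Chaps.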", "units": {"Ki": "nM"}, "values": [{"compound": "COCCNC(=O)c1c(O)c(NS(=O)(=O)c2cc(Br)ccc2O)cc(C2CC2)c1F", "note": "[Example J127, 3-((5-Bromo-2-hydroxyphenyl)sulfonamido)-5-cyclopropyl-6-fluoro-2-hydroxy-N-(2-methoxyethyl)benzamide]", "Ki": 1970}, {"compound": "O=C(NC1COC1)c1c(O)c(NS(=O)(=O)c2cc(Br)ccc2O)cc(C2CC2)c1F", "note": "[Example J128, 3-((5-Bromo-2-hydroxyphenyl)sulfonamido)-5-cyclopropyl-6-fluoro-2-hydroxy-N-(oxetan-3-yl)benzamide]", "Ki": 700}, {"compound": "O=C(NC1CCOC1)c1c(O)c(NS(=O)(=O)c2cc(Br)ccc2O)cc(C2CC2)c1F", "note": "(centres unmarked) [Example J131, 3-((5-Bromo-2-hydroxyphenyl)sulfonamido)-5-cyclopropyl-6-fluoro-2-hydroxy-N-(tetrahydrofuran-3-yl)benzamide]", "Ki": 2990}, {"compound": "O=C(N[C@@H]1CCOC1)c1c(O)c(NS(=O)(=O)c2cc(Br)ccc2O)cc(C2CC2)c1F", "note": "[Example J132, (R)-3-((5-Bromo-2-hydroyphenyl)sulfonamido)-5-cyclopropyl-6-fluoro-2-hydroxy-N-(tetrahydrofuran-3-yl)benzamide]", "Ki": 2450}, {"compound": "O=C(N[C@H]1CCOC1)c1c(O)c(NS(=O)(=O)c2cc(Br)ccc2O)cc(C2CC2)c1F", "note": "[Example J133, (S)-3-((5-Bromo-2-hydroxyphenyl)sulfonamido)-5-cyclopropyl-6-fluoro-2-hydroxy-N-(tetrahydrofuran-3-yl)benzamide]", "Ki": 4510}, {"compound": "CNC(=O)c1cc(NS(=O)(=O)c2cc(Br)ccc2O)cc(C2CC2)c1F", "note": "[Example J135, 5-((5-Bromo-2-hydroxyphenyl)sulfonamido)-3-cyclopropyl-2-fluoro-N-methylbenzamide]", "Ki": 690}, {"compound": "COCCNC(=O)c1cc(NS(=O)(=O)c2cc(Br)ccc2O)cc(C2CC2)c1F", "note": "[Example J136, 5-((5-Bromo-2-hydroxyphenyl)sulfonamido)-3-cyclopropyl-2-fluoro-N-(2-methoxyethyl)benzamide]", "Ki": 1110}, {"compound": "O=C(NCCN1CCOCC1)c1cc(NS(=O)(=O)c2cc(Br)ccc2O)cc(C2CC2)c1F", "note": "[Example J137, 5-((5-Bromo-2-hydroxyphenyl)sulfonamido)-3-cyclopropyl-2-fluoro-N-(2-morpholinoethyl)benzamide]", "Ki": 2980}, {"compound": "O=C(NC1COC1)c1cc(NS(=O)(=O)c2cc(Br)ccc2O)cc(C2CC2)c1F", "note": "[Example J138, 5-((5-Bromo-2-hydroxyphenyl)sulfonamido)-3-cyclopropyl-2-fluoro-N-(oxetan-3-yl)benzamide]", "Ki": 4750}, {"compound": "O=C(NC1CCOC1)c1cc(NS(=O)(=O)c2cc(Br)ccc2O)cc(C2CC2)c1F", "note": "(centres unmarked) [Example J139, 5-((5-Bromo-2-hydroxyphenyl)sulfonamido)-3-cyclopropyl-2-fluoro-N-(tetrahydrofuran-3-yl)benzamide]", "Ki": 12200}, {"compound": "CNC(=O)c1cc(C2CC2)cc(NS(=O)(=O)c2cc(Br)ccc2O)c1F", "note": "[Example J141, 3-((5-Bromo-2-hydroxyphenyl)sulfonamido)-5-cyclopropyl-2-fluoro-N-methylbenzamide]", "Ki": 960}, {"compound": "COCCNC(=O)c1cc(C2CC2)cc(NS(=O)(=O)c2cc(Br)ccc2O)c1F", "note": "[Example J142, 3-((5-Bromo-2-hydroxyphenyl)sulfonamido)-5-cyclopropyl-2-fluoro-N-(2-methoxyethyl)benzamide]", "Ki": 1480}, {"compound": "O=C(NCCN1CCOCC1)c1cc(C2CC2)cc(NS(=O)(=O)c2cc(Br)ccc2O)c1F", "note": "[Example J143, 3-((5-Bromo-2-hydroxyphenyl)sulfonamido)-5-cyclopropyl-2-fluoro-N-(2-morpholinoethyl)benzamide]", "Ki": 2540}, {"compound": "O=C(NC1COC1)c1cc(C2CC2)cc(NS(=O)(=O)c2cc(Br)ccc2O)c1F", "note": "[Example J144, 3-((5-Bromo-2-hydroxyphenyl)sulfonamido)-5-cyclopropyl-2-fluoro-N-(oxetan-3-yl)benzamide]", "Ki": 6760}, {"compound": "CNC(=O)c1c(O)c(NS(=O)(=O)c2cc(Br)cc(Cl)c2O)cc(C2CC2)c1F", "note": "[Example J146, 3-((5-Bromo-3-chloro-2-hydroxyphenyl)sulfonamido)-5-cyclopropyl-6-fluoro-2-hydroxy-N-methylbenzamide]", "Ki": 40}, {"compound": "COCCNC(=O)c1c(O)c(NS(=O)(=O)c2cc(Br)cc(Cl)c2O)cc(C2CC2)c1F", "note": "[Example J147, 3-((5-Bromo-3-chloro-2-hydroxyphenyl)sulfonamido)-5-cyclopropyl-6-fluoro-2-hydroxy-N-(2-methoxyethyl)benzamide]", "Ki": 230}, {"compound": "O=C(NCCN1CCOCC1)c1c(O)c(NS(=O)(=O)c2cc(Br)cc(Cl)c2O)cc(C2CC2)c1F", "note": "[Example J148, 3-((5-Bromo-3-chloro-2-hydroxyphenyl)sulfonamido)-5-cyclopropyl-6-fluoro-2-hydroxy-N-(2-morpholinoethyl)benzamide]", "Ki": 600}, {"compound": "O=C(NC1COC1)c1c(O)c(NS(=O)(=O)c2cc(Br)cc(Cl)c2O)cc(C2CC2)c1F", "note": "[Example J149, 3-((5-Bromo-3-chloro-2-hydroxyphenyl)sulfonamido)-5-cyclopropyl-6-fluoro-2-hydroxy-N-(oxetan-3-yl)benzamide]", "Ki": 710}, {"compound": "CNC(=O)c1c(O)c(NS(=O)(=O)c2cc(Br)cc(F)c2O)cc(C2CC2)c1F", "note": "[Example J150, 3-((5-Bromo-3-fluoro-2-hydroxyphenyl)sulfonamido)-5-cyclopropyl-6-fluoro-2-hydroxy-N-methylbenzamide]", "Ki": 920}, {"compound": "CNC(=O)c1cc(NS(=O)(=O)c2cc(Br)cc(Cl)c2O)cc(C2CC2)c1F", "note": "[Example J151, 5-((5-Bromo-3-chloro-2-hydroxyphenyl)sulfonamido)-3-cyclopropyl-2-fluoro-N-methylbenzamide]", "Ki": 210}, {"compound": "COCCNC(=O)c1cc(NS(=O)(=O)c2cc(Br)cc(Cl)c2O)cc(C2CC2)c1F", "note": "[Example J152, 5-((5-Bromo-3-chloro-2-hydroxyphenyl)sulfonamido)-3-cyclopropyl-2-fluoro-N-(2-methoxyethyl)benzamide]", "Ki": 320}, {"compound": "O=C(NCCN1CCOCC1)c1cc(NS(=O)(=O)c2cc(Br)cc(Cl)c2O)cc(C2CC2)c1F", "note": "[Example J153, 5-((5-Bromo-3-chloro-2-hydroxyphenyl)sulfonamido)-3-cyclopropyl-2-fluoro-N-(2-morpholinoethyl)benzamide]", "Ki": 440}, {"compound": "O=C(Nc1nc[nH]n1)c1cc(NS(=O)(=O)c2cc(Br)cc(Cl)c2O)cc(C2CC2)c1F", "note": "[Example J154, 5-((5-Bromo-3-chloro-2-hydroxyphenyl)sulfonamido)-3-cyclopropyl-2-fluoro-N-(1H-1,2,4-triazol-3-yl)benzamide]", "Ki": 130}, {"compound": "O=C(NC1COC1)c1cc(NS(=O)(=O)c2cc(Br)cc(Cl)c2O)cc(C2CC2)c1F", "note": "[Example J155, 5-((5-Bromo-3-chloro-2-hydroxyphenyl)sulfonamido)-3-cyclopropyl-2-fluoro-N-(oxetan-3-yl)benzamide]", "Ki": 330}, {"compound": "CNC(=O)c1cc(C2CC2)cc(NS(=O)(=O)c2cc(Br)cc(Cl)c2O)c1F", "note": "[Example J156, 3-((5-Bromo-3-chloro-2-hydroxyphenyl)sulfonamido)-5-cyclopropyl-2-fluoro-N-methylbenzamide]", "Ki": 210}, {"compound": "COCCNC(=O)c1cc(C2CC2)cc(NS(=O)(=O)c2cc(Br)cc(Cl)c2O)c1F", "note": "[Example J157, 3-((5-Bromo-3-chloro-2-hydroxyphenyl)sulfonamido)-5-cyclopropyl-2-fluoro-N-(2-methoxyethyl)benzamide]", "Ki": 210}, {"compound": "O=C(NCCN1CCOCC1)c1cc(C2CC2)cc(NS(=O)(=O)c2cc(Br)cc(Cl)c2O)c1F", "note": "[Example J158, 3-((5-Bromo-3-chloro-2-hydroxyphenyl)sulfonamido)-5-cyclopropyl-2-fluoro-N-(2-morpholinoethyl)benzamide]", "Ki": 320}, {"compound": "O=C(NC1COC1)c1cc(C2CC2)cc(NS(=O)(=O)c2cc(Br)cc(Cl)c2O)c1F", "note": "[Example J159, 3-((5-Bromo-3-chloro-2-hydroxyphenyl)sulfonamido)-5-cyclopropyl-2-fluoro-N-(oxetan-3-yl)benzamide]", "Ki": 610}, {"compound": "O=C(O)c1cc(OC(F)(F)F)cc(NS(=O)(=O)c2cc(Br)ccc2O)c1O", "note": "[Example J160, 3-((5-Bromo-2-hydroxyphenyl)sulfonamido)-2-hydroxy-5-(trifluoromethoxy)benzoic acid]", "Ki": 60}, {"compound": "O=C(O)c1cc(OC(F)(F)F)cc(NS(=O)(=O)c2cc(Br)cc3cccnc23)c1O", "note": "[Example J161, 3-((6-Bromoquinoline)-8-sulfonamido)-2-hydroxy-5-(trifluoromethoxy)benzoic acid]", "Ki": 350}, {"compound": "CNC(=O)c1cc(OC(F)(F)F)cc(NS(=O)(=O)c2cc(Br)ccc2O)c1O", "note": "[Example J162, 3-((5-Bromo-2-hydroxyphenyl)sulfonamido)-2-hydroxy-N-methyl-5-(trifluoromethoxy)benzamide]", "Ki": 410}, {"compound": "COCCNC(=O)c1cc(OC(F)(F)F)cc(NS(=O)(=O)c2cc(Br)ccc2O)c1O", "note": "[Example J163, 3-((5-Bromo-2-hydroxyphenyl)sulfonamido)-2-hydroxy-N-(2-methoxyethyl)-5-(trifluoromethoxy)benzamide]", "Ki": 570}, {"compound": "O=C(NCCN1CCOCC1)c1cc(OC(F)(F)F)cc(NS(=O)(=O)c2cc(Br)ccc2O)c1O", "note": "[Example J164, 3-((5-Bromo-2-hydroxyphenyl)sulfonamido)-2-hydroxy-N-(2-morpholinoethyl)-(trifluoromethoxy)benzamide]", "Ki": 1440}, {"compound": "O=C(NCC1CCCO1)c1cc(OC(F)(F)F)cc(NS(=O)(=O)c2cc(Br)ccc2O)c1O", "note": "(centres unmarked) [Example J165, 3-((5-Bromo-2-hydroxyphenyl)sulfonamido)-2-hydroxy-N-((tetrahydrofuran-2-yl)methyl)-5-(trifluoromethoxy)benzamide]", "Ki": 420}, {"compound": "O=C(NCC1CCOC1)c1cc(OC(F)(F)F)cc(NS(=O)(=O)c2cc(Br)ccc2O)c1O", "note": "(centres unmarked) [Example J166, 3-((5-Bromo-2-hydroxyphenyl)sulfonamido)-2-hydroxy-N-((tetrahydrofuran-3-yl)methyl)-5-(trifluoromethoxy)benzamide]", "Ki": 680}]}]}
